Test results: US10072017B2, “Compounds and methods for the treatment of cystic fibrosis” (Flatley Discovery Lab, LLC, priority 2015, dated 2018)

Target: T1, CFTR (Homo sapiens, UniProt P13569, DEL508-508)
T1 construct: Primary CF airway epithelial cells were obtained from the UNC Cystic Fibrosis Tissue Procurement and Cell Culture Core; host or cells: primary CF airway epithelial cells
Assay: Equivalent current assay in Primary CF airway epithelial cells (NAUC)
Assay type: cell-based
Conditions: 24 h, normalized to VX809 (3 μM) positive control; for Nauc @ 3 μM: 3 μM test compound; for Nauc @ 10 μM: 10 μM test compound
Method in brief: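 Primary CF airway epithelia differentiated ≥4 weeks at air-liquid interface, treated basolaterally 24 h at 37 °C with test compounds in combination with VX809, 0.1% DMSO vehicle. Equivalent current recorded after 5 μM benzamil, 10 μM forskolin plus 1 μM VX770, then CFTR-172/bumetanide 20 μM; vehicle-subtracted AUC normalized to 3 μM VX809 (NAUC), median of n≥4, sigmoid fit for EC50.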

T1 sequence (P13569 with tags, fused parts or gaps DEL508-508): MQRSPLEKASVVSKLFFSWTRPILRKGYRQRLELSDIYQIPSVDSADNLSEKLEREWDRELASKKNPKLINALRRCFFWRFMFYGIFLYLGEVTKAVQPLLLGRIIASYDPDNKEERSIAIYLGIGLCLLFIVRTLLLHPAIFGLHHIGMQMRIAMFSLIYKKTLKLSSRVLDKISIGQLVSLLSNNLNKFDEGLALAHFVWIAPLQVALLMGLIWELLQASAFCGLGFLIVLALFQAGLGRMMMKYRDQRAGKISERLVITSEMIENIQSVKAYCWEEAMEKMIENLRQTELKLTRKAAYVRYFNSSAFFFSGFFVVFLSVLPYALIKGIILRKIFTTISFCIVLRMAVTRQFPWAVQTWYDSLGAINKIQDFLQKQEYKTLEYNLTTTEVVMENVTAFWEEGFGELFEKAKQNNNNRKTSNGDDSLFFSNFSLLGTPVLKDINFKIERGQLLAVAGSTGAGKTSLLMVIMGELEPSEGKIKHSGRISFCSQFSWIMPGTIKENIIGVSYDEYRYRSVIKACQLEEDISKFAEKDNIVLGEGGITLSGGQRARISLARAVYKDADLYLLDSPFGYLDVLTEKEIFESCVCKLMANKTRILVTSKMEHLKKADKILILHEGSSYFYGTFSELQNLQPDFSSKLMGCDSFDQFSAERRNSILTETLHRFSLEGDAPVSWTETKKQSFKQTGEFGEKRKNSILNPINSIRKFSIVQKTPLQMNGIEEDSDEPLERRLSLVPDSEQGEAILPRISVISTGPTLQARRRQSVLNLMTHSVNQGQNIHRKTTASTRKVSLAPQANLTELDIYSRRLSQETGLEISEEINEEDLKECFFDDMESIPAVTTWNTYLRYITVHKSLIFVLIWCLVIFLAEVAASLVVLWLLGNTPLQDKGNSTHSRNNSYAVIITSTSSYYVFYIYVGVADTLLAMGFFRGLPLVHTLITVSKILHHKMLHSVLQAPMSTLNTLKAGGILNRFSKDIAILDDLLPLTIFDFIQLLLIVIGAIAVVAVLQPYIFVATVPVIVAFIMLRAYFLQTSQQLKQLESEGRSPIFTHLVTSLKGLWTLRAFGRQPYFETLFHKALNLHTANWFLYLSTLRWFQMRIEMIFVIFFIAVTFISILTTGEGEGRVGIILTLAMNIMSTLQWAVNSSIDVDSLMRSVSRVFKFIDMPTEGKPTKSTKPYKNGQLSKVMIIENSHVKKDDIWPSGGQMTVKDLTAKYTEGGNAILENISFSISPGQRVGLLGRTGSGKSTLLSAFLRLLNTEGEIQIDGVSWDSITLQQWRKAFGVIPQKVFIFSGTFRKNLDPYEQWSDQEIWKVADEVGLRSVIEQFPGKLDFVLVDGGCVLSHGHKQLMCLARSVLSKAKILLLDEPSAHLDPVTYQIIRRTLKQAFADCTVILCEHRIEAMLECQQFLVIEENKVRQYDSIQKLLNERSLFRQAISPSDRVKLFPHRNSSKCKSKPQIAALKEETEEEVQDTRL

## O=C1C2C3CCCN3C3(C(=O)Nc4c(Cl)cc(Cl)cc43)C2C(=O)N1c1cc(C(F)(F)F)cc(C(F)(F)F)c1 (stereo not drawn) [Example 25]
  Nauc @ 3 μM: +++ (NAUC “+++” refers to an observed NAUC >170% of positive control)
  Nauc @ 10 μM: +++ (NAUC “+++” refers to an observed NAUC >170% of positive control)

## Cc1cccc(CC2NC3(C(=O)Nc4c(Cl)cc(Cl)cc43)C3C(=O)N(c4cc(Cl)cc(Cl)c4)C(=O)C23)n1 (stereo not drawn) [Example 238]
  Nauc @ 3 μM: + (NAUC “+” refers to an observed NAUC <140% of positive control)
  Nauc @ 10 μM: ++ (NAUC “++” refers to an observed NAUC 170-140% of positive control)

## O=C1C2C(Cc3ccc(F)cc3)NC3(C(=O)Nc4c(Cl)cc(Cl)cc43)C2C(=O)N1c1cc(Cl)cc(Cl)c1 (stereo not drawn) [Example 196]
  Nauc @ 3 μM: + (NAUC “+” refers to an observed NAUC <140% of positive control)
  Nauc @ 10 μM: ++ (NAUC “++” refers to an observed NAUC 170-140% of positive control)

## COc1cc(Cl)cc(N2C(=O)C3C4C[C@H](F)CN4C4(C(=O)Nc5c(Cl)cc(Cl)cc54)C3C2=O)c1 (single isomer, unassigned) [Example 110]
  Nauc @ 3 μM: +++ (NAUC “+++” refers to an observed NAUC >170% of positive control)
  Nauc @ 10 μM: +++ (NAUC “+++” refers to an observed NAUC >170% of positive control)

## COc1c(Cl)cc(N2C(=O)C3C4CC(F)(F)CN4C4(C(=O)Nc5c(Cl)cc(Cl)cc54)C3C2=O)cc1Cl (stereo not drawn) [Example 194]
  Nauc @ 3 μM: +++ (NAUC “+++” refers to an observed NAUC >170% of positive control)
  Nauc @ 10 μM: ++ (NAUC “++” refers to an observed NAUC 170-140% of positive control)

## COc1c(Cl)cc(N2C(=O)C3C4CC(=C(F)F)CN4C4(C(=O)Nc5c(Cl)cc(Cl)cc54)C3C2=O)cc1Cl (stereo not drawn) [Example 121]
  Nauc @ 3 μM: ++ (NAUC “++” refers to an observed NAUC 170-140% of positive control)
  Nauc @ 10 μM: ++ (NAUC “++” refers to an observed NAUC 170-140% of positive control)

## COc1cc(Cl)cc(N2C(=O)C3C4C[C@H](O)CN4C4(C(=O)Nc5c(Cl)cc(Cl)cc54)C3C2=O)c1 (single isomer, unassigned) [Example 115]
  Nauc @ 3 μM: + (NAUC “+” refers to an observed NAUC <140% of positive control)
  Nauc @ 10 μM: ++ (NAUC “++” refers to an observed NAUC 170-140% of positive control)

## CC(C)(C)NC(=O)N[C@H]1CC2C3C(=O)N(c4cc(Cl)cc(Cl)c4)C(=O)C3C3(C(=O)Nc4c(Cl)cc(Cl)cc43)N2C1 (stereo partly drawn) [Example 153]
  Nauc @ 3 μM: + (NAUC “+” refers to an observed NAUC <140% of positive control)
  Nauc @ 10 μM: ++ (NAUC “++” refers to an observed NAUC 170-140% of positive control)

## O=C1C2C(c3ccccn3)NC3(C(=O)Nc4c(Cl)cc(Cl)cc43)C2C(=O)N1c1cc(Cl)cc(Cl)c1 (stereo not drawn) [Example 212]
  Nauc @ 3 μM: + (NAUC “+” refers to an observed NAUC <140% of positive control)
  Nauc @ 10 μM: ++ (NAUC “++” refers to an observed NAUC 170-140% of positive control)

## O=C1[C@H]2[C@H]3C[C@H](O)CN3[C@]3(C(=O)Nc4c(Cl)cc(Cl)cc43)[C@H]2C(=O)N1c1cc(Cl)cc(Cl)c1 (single isomer, unassigned) [Example 2]
  Nauc @ 3 μM: +++ (NAUC “+++” refers to an observed NAUC >170% of positive control)
  Nauc @ 10 μM: +++ (NAUC “+++” refers to an observed NAUC >170% of positive control)

## Cc1ccc(N2C(=O)C3C4CCCN4C4(C(=O)Nc5c(C)cccc54)C3C2=O)c(Cl)c1 (stereo not drawn) [Example 128]
  Nauc @ 3 μM: ++ (NAUC “++” refers to an observed NAUC 170-140% of positive control)
  Nauc @ 10 μM: + (NAUC “+” refers to an observed NAUC <140% of positive control)

## CC12C(=O)N(c3cc(Cl)cc(Cl)c3)C(=O)C1(C)C1(C(=O)Nc3c(Cl)cc(Cl)cc31)N1CCCC12 (stereo not drawn) [Example 39]
  Nauc @ 3 μM: + (NAUC “+” refers to an observed NAUC <140% of positive control)
  Nauc @ 10 μM: ++ (NAUC “++” refers to an observed NAUC 170-140% of positive control)
